In article PMC7815742 (Nature Communications, 2021):

Experiments:
(UniProt A0A3A0FWV3) = molecular target: T1, (UniProt A0A3A0FWV3); assay: in vitro [3H]-progesterone reduction assay with purified enzyme, HPLC radiodetection; assay type: biochemical, Pseudomonadota bacterium
T1 construct: GenBank RIL07334.1, purified wild type

[1] = molecular target: the molecule itself; assay: AUC; sedimentation velocity, 20 °C, 25 mM HEPES pH 7.5, 150 mM NaCl, 5% glycerol, 0.02% DDM, 5 mM DTT; masses calculated with SEDFIT and GUSSI

T1 sequence (A0A3A0FWV3 1-253 limits assumed): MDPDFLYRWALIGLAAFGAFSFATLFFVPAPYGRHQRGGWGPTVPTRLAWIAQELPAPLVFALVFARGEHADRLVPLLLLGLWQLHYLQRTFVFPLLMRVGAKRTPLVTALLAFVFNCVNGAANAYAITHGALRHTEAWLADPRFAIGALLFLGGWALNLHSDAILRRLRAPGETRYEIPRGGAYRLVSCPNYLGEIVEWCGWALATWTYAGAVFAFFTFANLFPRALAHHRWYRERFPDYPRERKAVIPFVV

`C[C@]12C=CC(=O)N[C@@H]1CC[C@@H]1[C@@H]2CC[C@]2(C)[C@@H](C(=O)Nc3cc(C(F)(F)F)ccc3C(F)(F)F)CC[C@@H]12` [Duta, dutasteride] was tested, and the IC50 ((UniProt A0A3A0FWV3)) was 1.59 ± 0.19 µM.

B1: mycobacterial homolog of Insig protein (MvINS) (natural protein)
chain: MRLRISEAVVLFLLGAVAALIGDHSHVVTGTTVYHTDAVPFVWSSPFWFPILVGAATASLAELRLHLPAPRDGVTARQALGGVAAVVGTYVTTALVHAFPVVPVTALVCAAAAITWCVLGDGPGAACGVVIAVIGPAVEIALVQLGVFAYHPDSDGLFGVAPFLAPLYFAFGVVAALLGELAVARRPQLGPPVCDTVSRGPGAG
notes: mycobacterial homolog of Insig, MvINS; PDB 4XU4; theoretical protomer mass 23.6 kDa
B1 was tested, and the “stoichiometry N” value [1] was 3.
